Where a name gives a salt, the structure may show the parent alone. Read-outs that look alike come from different tables or passages of the source.

For experiment [1], the target named is T1, α-1b adrenoreceptor (Mesocricetus auratus, UniProt P18841).
T1 sequence (P18841 1-515): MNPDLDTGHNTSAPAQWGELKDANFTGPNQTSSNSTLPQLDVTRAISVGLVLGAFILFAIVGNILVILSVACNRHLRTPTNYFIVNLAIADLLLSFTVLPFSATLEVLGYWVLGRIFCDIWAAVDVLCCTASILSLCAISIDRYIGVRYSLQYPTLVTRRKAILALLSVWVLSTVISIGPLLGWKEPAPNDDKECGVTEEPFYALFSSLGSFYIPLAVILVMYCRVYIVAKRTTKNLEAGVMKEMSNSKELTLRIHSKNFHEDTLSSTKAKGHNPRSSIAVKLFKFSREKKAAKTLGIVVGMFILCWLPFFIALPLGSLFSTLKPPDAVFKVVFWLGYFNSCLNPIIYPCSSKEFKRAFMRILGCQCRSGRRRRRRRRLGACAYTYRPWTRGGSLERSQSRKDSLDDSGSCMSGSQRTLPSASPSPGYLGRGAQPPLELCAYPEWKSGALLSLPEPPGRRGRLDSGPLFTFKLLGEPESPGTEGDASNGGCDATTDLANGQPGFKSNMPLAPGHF
The experiment is described as follows: biochemical. It is filed as binding, hamster. An outline of the steps: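 Membranes from LTK mouse fibroblast clones stably transfected with α-1a, α-1b or α-1d cDNA, resuspended in 50 mM Tris-HCl pH 7.4, served for radioligand displacement read by liquid scintillation. Rat submaxillary gland tissue supplied the α-1A receptor.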

The target in experiment [2] is T2, α-1B adrenoreceptor (Rattus norvegicus, UniProt P15823).
T2 construct: from tissue; host or cells: rat spleen
T2 sequence (P15823 1-515): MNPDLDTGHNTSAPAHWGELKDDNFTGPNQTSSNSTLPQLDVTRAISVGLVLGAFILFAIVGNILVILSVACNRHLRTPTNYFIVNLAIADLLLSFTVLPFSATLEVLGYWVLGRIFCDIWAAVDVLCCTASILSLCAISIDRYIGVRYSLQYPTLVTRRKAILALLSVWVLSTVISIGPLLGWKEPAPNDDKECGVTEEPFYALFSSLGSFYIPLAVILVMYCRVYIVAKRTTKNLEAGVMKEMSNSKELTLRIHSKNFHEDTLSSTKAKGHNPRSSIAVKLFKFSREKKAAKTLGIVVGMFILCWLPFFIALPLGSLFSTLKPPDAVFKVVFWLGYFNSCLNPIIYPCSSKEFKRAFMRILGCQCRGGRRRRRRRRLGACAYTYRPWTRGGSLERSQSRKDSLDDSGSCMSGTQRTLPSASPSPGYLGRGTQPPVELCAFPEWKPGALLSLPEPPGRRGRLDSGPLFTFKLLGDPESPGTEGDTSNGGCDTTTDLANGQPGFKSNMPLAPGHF
Nature of the experiment: cell-based. The conditions noted are these: phenylephrine-induced contraction, Schild plot; for Kb: read-out: In Vitro Characterization (pA2) Rat Spleen (converted). From the text: Functional assays indicative of pharmacologically defined α-1 adrenoreceptors were used to further characterize compounds. Inhibition of phenylephrine (PE)-induced contraction of canine prostate smooth muscle can be correlated with α-1A adrenoreceptor activation. […] For each of these models, agonist dose response curves were repeated against increasing concentrations of test agent to derive a Schild plot [log ([…]) against log (molarity of test agent)] to determine the pA2.

Where [3] appears, read: [3H]-prazosin radioligand, cloned receptor in LTK cell membranes, read-out: Radioligand Binding (Ki, nM) 1b (Hamster).
Setting [4] is: read-out: Radioligand Binding (Ki, nM) 1b (Hamster).

By Ki is commonly meant a dissociation constant, usually derived from enzyme kinetics or from competition with a known ligand. As for “3-[4-((3aR,9bR)-cis-9-Methoxy-1,2,3,3a,4,9b-hexahydro-[1]-benzopyrano[3,4-c]pyrrol-2-yl]butyl]-7-methoxy-pyrido[3',2':4,5]thieno[3,2-d]pyrimidine-2,4(1H,3H)-dione hydrochloride [Example 33]”, the inhibition constant (Ki) in experiment [1] (setting [3]) is 10.5 nM. For the same molecule, the “In Vitro Characterization (pA2) Rat Spleen” value (“In Vitro Characterization” below) in experiment [2] came to 7.83.

In the case of `COc1ccc2c(c1)OC[C@H]1CN(CCn3c(=O)[nH]c4c(sc5ccccc54)c3=O)C[C@@H]21.Cl` (racemic) [Example 63, 3-[2-((±)-cis-7-Methoxy-1,2,3,3a,4,9b-hexahydro-[1]-benzopyrano[3,4-c]pyrrol-2-yl)ethyl]-[1]benzthieno[3,2-d]pyrimidine-2,4(1H,3H)-dione hydrochloride], in experiment [1] (setting [4]), the inhibition constant Ki turned out to be 92.2 nM.

For the molecule `COc1ccc2c(c1)OC[C@H]1CN(CCCn3c(=O)[nH]c4c(sc5ccccc54)c3=O)C[C@@H]21.Cl` (racemic) [Example 64, 3-[3-((±)-cis-7-Methoxy-1,2,3,3a,4,9b-hexahydro-[1]-benzopyrano[3,4-c]pyrrol-2-yl)propyl]-[1]benzthieno[3,2-d]pyrimidine-2,4(1H,3H)-dione hydrochloride], the Ki in experiment [1] (setting [4]) was 9.3 nM.

As for `COc1cccc2c1[C@@H]1CN(CCn3c(=O)[nH]c4c(sc5ccccc54)c3=O)C[C@@H]1CO2.Cl` (racemic) [Example 65, 3-[2-((±)-cis-9-Methoxy-1,2,3,3a,4,9b-hexahydro-[1]-benzopyrano[3,4-c]pyrrol-2-yl)ethyl]-[1]benzthieno[3,2-d]pyrimidine-2,4(1H,3H)-dione hydrochloride], the Ki in experiment [1] (setting [4]) is 20.7 nM.

As for `COc1cccc2c1[C@@H]1CN(CCCn3c(=O)[nH]c4c(sc5ccccc54)c3=O)C[C@@H]1CO2.Cl` (racemic) [Example 66, 3-[3-((±)-cis-9-Methoxy-1,2,3,3a,4,9b-hexahydro-[1]-benzopyrano[3,4-c]pyrrol-2-yl)propyl]-[1]benzthieno[3,2-d]pyrimidine-2,4(1H,3H)-dione hydrochloride], the Ki in experiment [1] (setting [4]) worked out at 533 nM.

For `COc1cccc2c1OC[C@H]1CN(CCn3c(=O)[nH]c4c(sc5ccccc54)c3=O)C[C@@H]21.Cl` (racemic) [Example 67, 3-[2-((±)-cis-6-Methoxy-1,2,3,3a,4,9b-hexahydro-[1]-benzopyrano[3,4-c]pyrrol-2-yl)ethyl]-[1]benzthieno[3,2-d]pyrimidine-2,4(1H,3H)-dione hydrochloride], in experiment [1] (setting [4]), the Ki came to 248 nM. Further, in experiment [2], the Kb was 148 nM.

As for `COc1cccc2c1OC[C@H]1CN(CCCn3c(=O)[nH]c4c(sc5ccccc54)c3=O)C[C@@H]21.Cl` (racemic) [Example 68, 3-[3-((±)-cis-6-Methoxy-1,2,3,3a,4,9b-hexahydro-[1]-benzopyrano[3,4-c]pyrrol-2-yl)propyl]-[1]benzthieno[3,2-d]pyrimidine-2,4(1H,3H)-dione hydrochloride], the Ki in experiment [1] (setting [4]) came to 23.6 nM.

Regarding `Cl.O=c1[nH]c2c(sc3ccccc32)c(=O)n1CCN1C[C@@H]2COc3ccccc3[C@@H]2C1` (racemic) [Example 69, 3-[2-((±)-cis-1,2,3,3a,4,9b-hexahydro-[1]-benzopyrano[3,4-c]pyrrol-2-yl)ethyl]-[1]benzthieno[3,2-d]pyrimidine-2,4(1H,3H)-dione hydrochloride], the Ki in experiment [1] (setting [4]) turned out to be 4.35 nM.

Turning to `O=c1[nH]c2c(sc3cccnc32)c(=O)n1CCCCN1C[C@@H]2COc3ccccc3[C@@H]2C1` (racemic) [Example 70, 3-[4-((±)-cis-1,2,3,3a,4,9b-hexahydro-[1]-benzopyrano[3,4-c]pyrrol-2-yl)butyl]-pyrido[2',3':4,5]thieno[3,2-d]pyrimidine-2,4(1H,3H)-dione dihydrochloride], the Ki in experiment [1] (setting [4]) was found to be 0.724 nM. Also, the Kb in experiment [2] is 87.1 nM.

With `COc1cccc2c1[C@H]1CN(CCCCn3c(=O)[nH]c4c(sc5nccnc54)c3=O)C[C@@H]1CO2.Cl.Cl` (racemic) [Example 74, 3-[4-((±)-trans-9-Methoxy-1,2,3,3a,4,9b-hexahydro-[1]-benzopyrano[3,4-c]pyrrol-2-yl)butyl]-pyrazino[2',3':4,5]thieno[3,2-d]pyrimidine-2,4(1H,3H)-dione dihydrochloride], the Ki in experiment [1] (setting [4]) is 14.3 nM. In addition, the Kb in experiment [2] is 6.46 nM.

Consider `COc1cc2[nH]c(=O)n(CCCCN3C[C@@H]4COc5ccccc5[C@@H]4C3)c(=O)c2cc1OC` (racemic) [Example 81, 3-[4-((±1-cis-1,2,3,3a,4,9b-hexahydro-[1]-benzopyrano[3,4-c]pyrrol-2-yl)butyl]-6,7-dimethoxy-quinazoline-2,4(1H,3H)-dione hydrochloride], for which, in experiment [1] (setting [3]), the Ki turned out to be 0.192 nM. For the same molecule, the Kb in experiment [2] was 38.9 nM.

As to `COc1cccc2c1[C@@H]1CCN(CCCCn3c(=O)[nH]c4c(sc5ncccc54)c3=O)C[C@H]1CO2` (racemic) [Example 85, 3-[4-((±)-trans-10-Methoxy-1,3,4,4a,5,10b-hexahydro-2H-[1]-benzopyrano[3,4-c]pyrido-3-yl)butyl]-pyrido[3',2':4,5]thieno[3,2-d]pyrimidine-2,4(1H,3H)-dione dihydrochloride], in experiment [1] (setting [3]), the Ki was found to be 1.89 nM.

Take `COc1cnc2sc3c(=O)n(CCCCN4CC5COc6cccc(OC)c6[C@@H]5C4)c(=O)[nH]c3c2n1.Cl` (stereo in doubt) [Example 43, 3-[4-((3aS,9bR)-trans-9-Methoxy-1,2,3,3a,4,9b-hexahydro-[1]-benzopyrano[3,4-c]pyrrol-2-yl)butyl]-8-methoxy-pyrazino[2',3':4,5]thieno[3,2-d]pyrimidine-2,4(1H,3H)-dione hydrochloride]: the Ki in experiment [1] (setting [3]) was 1.49 nM. In addition, the “In Vitro Characterization” value in experiment [2] is reported as 7.66.

Take `COc1cc2nc(N3CCN(C(=O)C4COc5ccccc5O4)CC3)nc(N)c2cc1OC` (centres unmarked) [Doxazosin, doxazosin, reference compound]: the Ki in experiment [1] is 0.793 nM. In experiment [2], the “In Vitro Characterization” value was 9.51.

With `COc1cccc2c1[C@@H]1CN(CCCCn3c(=O)[nH]c4c(sc5cccnc54)c3=O)C[C@@H]1CO2` [Example 1, 3-[4-((3aR,9bR)-cis-9-Methoxy-1,2,3,3a,4,9b-hexahydro-[1]-benzopyrano[3,4-c]pyrrol-2-yl)butyl]-pyrido[2',3':4,5]thieno[3,2-d]pyrimidine-2,4(1H,3H)-dione hydrochloride], the Ki in experiment [1] (setting [3]) worked out at 1.14 nM.

With `COc1cccc2c1[C@H]1CN(CCCCn3c(=O)[nH]c4c(sc5cccnc54)c3=O)C[C@H]1CO2` [Example 2, 3-[4-((3aS,9bS)-cis-9-Methoxy-1,2,3,3a,4,9b-hexahydro-[1]-benzopyrano[3,4-c]pyrrol-2-yl)butyl]-pyrido[2',3':4,5]thieno[3,2-d]pyrimidine-2,4(1H,3H)-dione hydrochloride], the inhibitory constant (Ki) in experiment [1] (setting [3]) amounted to 9.23 nM.

As for `COc1cccc2c1[C@@H]1CN(CCCCn3c(=O)[nH]c4c(sc5cccnc54)c3=O)C[C@H]1CO2` [Example 3, 3-[4-((3aS,9bR)-trans-9-Methoxy-1,2,3,3a,4,9b-hexahydro-[1]-benzopyrano[3,4-c]pyrrol-2-yl)butyl]-pyrido[2',3':4,5]thieno[3,2-d]pyrimidine-2,4(1H,3H)-dione hydrochloride], the inhibitory constant (Ki) in experiment [1] (setting [3]) came out at 0.286 nM.

For `COc1cccc2c1[C@@H]1CN(CCCCn3c(=O)[nH]c4c(sc5ncc(Cl)nc54)c3=O)C[C@H]1CO2` [Example 13, 3-[4-((3aS,9bR)-trans-9-Methoxy-1,2,3,3a,4,9b-hexahydro-[1]-benzopyrano[3,4-c]pyrrol-2-yl)butyl]-8-chloro-pyrazino[2',3':4,5]thieno[3,2-d]pyrimidine-2,4(1H,3H)-dione hydrochloride], the inhibitory constant (Ki) in experiment [1] (setting [3]) is 2.49 nM. Moreover, the Kb in experiment [2] was 4.07 nM.

The record behind these values is EP0942911B1, “BENZOPYRANOPYRROLE AND BENZOPYRANOPYRIDINE ALPHA-1 ADRENERGIC COMPOUNDS” (Abbott Laboratories, priority 1996, dated 1998).
